Entries after “also recorded” stand apart in the source; their conditions may differ.
Assays:
CFTR T1471A = experiment: De novo synthesized CFTR level after CHX wash-out with CK2 inhibitor, T1471A; type: cell-based, human; conditions: BHK cells; 2 h CHX 100 µg/mL, washed, then 2 µM CX4945 for 2, 4, 8 h; Western blot; vs vehicle; Figure 5B
Description: (§1) Baby hamster kidney cells (BHK) stably expressing human CFTR (hCFTR) either wild type (WT), or Phe508del, or WT T1471A were growth to reach 70–80% confluency. After 2 h-long treatment with 100 µg/mL cyclohexamide, cells were washed with PBS and incubated with 2 µM CX4945 or its vehicle for the indicated time. At each time-point cells were washed with ice-cold PBS, scraped from the plates, pelleted by centrifugation (1200 g for 5 min at room tempertaure) and lysed in a buffer containing 1% (v/v) Nonidet P40, 50 mM Tris/HCl (pH 7.5) and 150 mM NaCl with fresh protease inhibitor tablets (Roche), 1 µM Okadaic acid (Alexis) and phosphatases inhibitors cocktails 2 and 3 (Sigma). Cells were lysed by incubation on ice for 30 min and then the lysates were cleared by centrifugation at 17000 g for 30 min at 4°C. The supernatant was collected and subjected to protein concentration quantification.
(§2) Western blot analysis was performed as described in [14] using a modified Laemmli buffer containing 105 mM dithiothreitol (final concentration) to enhance the solubilization of CFTR. […] Immunoblots were developed by enhanced chemiluminescence, detected on Kodak Image Station 440 cf and analyzed by the Kodak 1D image software. […]

CFTR wild type = experiment: De novo synthesized CFTR level after CHX wash-out with CK2 inhibitor, wild type; type: cell-based, human; conditions: BHK cells, 2 h CHX 100 µg/mL, washed, then 2 µM CX4945 for 2, 4, 8 h, Western blot, vs vehicle, Figure 5A
Description: as §1, §2

Phe508delCFTR = experiment: De novo synthesized CFTR level after CHX wash-out with CK2 inhibitor, Phe508del; type: cell-based, human; conditions: BHK cells, washed; for effect on de novo synthesis / accumulation of Phe508delCFTR: 2 h CHX 100 µg/mL, then 2 µM CX4945 for 2, 4, 8 h, Western blot, vs vehicle, Figure 5C
Description: as §1
Western blot analysis was performed as described in [14] using a modified Laemmli buffer containing 105 mM dithiothreitol (final concentration) to enhance the solubilization of CFTR. 20–30 µg of total proteins were separated on 4–12% precast NuPage® Bis-Tris gradient gels (Invitrogen) according to the manufacturer’s instructions and transferred on to Optitran BA-S 83 nitrocellulose membranes (Whatman) with a semi-dry blotter (Biometra) for 1 h at 150 mA. Membranes were saturated for 1 h with 5% skimmed milk in Tris-buffered saline (TBS) containing 0.2% Tween 20. Immunoblots were developed by enhanced chemiluminescence, detected on Kodak Image Station 440 cf and analyzed by the Kodak 1D image software. […]
In order to evaluate the efficacy of CX4945 on the level of de novo synthesized CFTR, protein synthesis was inhibited by two hours cell treatment with cycloheximide (CHX). Blockade was then removed by washing off CHX and newly synthesized CFTR was quantified after 2, 4, and 8 hrs incubation either in the absence or presence of CX4945. […] This point has been corroborated by performing the experiment in triplicate and drawing from it quantification of Phe508delCFTR band B, as reported in Panel D.

CK2 = test system: CK2; set-up: method as in PMID 21870818; conditions: ref [43]; cited from earlier work

## O=C(O)c1ccc2c(c1)nc(Nc1cccc(Cl)c1)c1ccncc12 [CX4945]
CFTR T1471A
  effect on de novo synthesis of CFTR T1471A: a similar effect of CX4945 being also detectable; also recorded: a similar effect of CX4945 was observed with CFTR wild type and its T1471A mutant
CFTR wild type
  effect on de novo synthesis / accumulation of CFTR wild type: accumulates more abundantly than in the absence of CK2 inhibitor; also recorded: de novo synthesis of CFTR wild type is significantly stimulated
CFTR wild type; listed as CX-4945
  effect on de novo synthesis / accumulation of CFTR wild type: the re-appearance of CFTR reached higher levels
Phe508delCFTR
  effect on de novo synthesis / accumulation of Phe508delCFTR: the efficacy of inhibiting CK2 is enhanced
Phe508delCFTR; listed as CX-4945
  effect on de novo synthesis / accumulation of Phe508delCFTR: definitely more pronounced in the case of Phe508delCFTR
Phe508delCFTR; 2 h CHX, then 2 µM CX4945 vs vehicle, Western blot quantitation, experiments in triplicate, Figure 5D
  increment of Phe508delCFTR band B: two to three
CK2
  selectivity for CK2: the most selective CK2 inhibitor available to date

From publication PMC3776838, “Detection of Phospho-Sites Generated by Protein Kinase CK2 in CFTR: Mechanistic Aspects of Thr1471 Phosphorylation” (PLoS ONE, 2013)
